Measurements: patent publication US12714698B2, “Compositions and methods for treating or preventing dermal disorders” (Drexel University, priority 2015, dated 2026)

System: ribosomal S6 protein and MDM2
Experiment: Immunoblot of ribosomal S6 protein and MDM2 phosphorylation (mTORC1/p70S6K signaling)
Format: cell-based, human
Conditions: agent added to NRTI-exposed cardiac fibroblasts
Experimental: Cell culture experiments utilizing NRTIs were of the following design. Cultures of either human lung or cardiac fibroblasts were cultivated according to standard culture protocols for these cells (Cristofalo, et al., Journal of Tissue Culture Methods 1980, 6:117-121). Parallel sets of cultures were maintained in normal growth media or in normal growth media with the addition of 1 nM rapamycin. Cultures were maintained with 1 nM rapamycin (Enzo Biologicals) for two weeks before exposure to NRTIs. Cell cultures were exposed to NRTIs at indicated concentrations in individual experiments (generally 10-20 μg/ml) for 7 days, with a change of media and fresh NRTIs at day 4. Mitochondrial measurements, bioanalyzer measurements, immunoblotting for protein expression and phosphorylation status, and assays for senescence were performed at the end of this 7-day period.
Cell culture reagents were from Cellgro, unless indicated. WI-38 fetal-lung primary human fibroblasts or human cardiac fibroblasts were grown in MEM supplemented with 10% fetal bovine serum, 1% L-glutamine, MEM vitamins, and MEM non-essential amino acids. Cells were maintained in a 37° C. in 5% CO2 incubator. For treatment studies, cells were treated with 1 nM rapamycin (Enzo Biologicals) for two weeks before treatment with NRTIs. Cells were maintained by trypsinization and reseeding at a cell density of 1×10^4/cm^2 every 7 to 10 days. Emtricitabine (FTC) and tenofovir disoproxil fumarate (TDF) were kindly provided by the NIH AIDS Research & Reference Reagent program. During the 7-day exposure to the NRTIs, the pharmacologic inhibitors PD98059 (10 μM, Santa Cruz Biotechnologies), BI-D1870, GW5074, and SB203580 (10 μM, Enzo Biologicals) were added to the culture medium either during the final 48 hours or for the final 2 hours depending upon the experiment. During the 7-day exposure to NRTIs, Trolox (500 μM) and N-acetylcysteine (100 μM, Acros Organics) were added every other day. Mito-Q (20 nM) and TPP (20 nM) were kindly provided by Dr. Brett Kaufmann at the University of Pennsylvania School of Veterinary Medicine. Vector and mt-catalase adenoviruses (MOI's 25, 50, and 75) were purchased from Gene Transfer Vector Core from the University of Iowa.
Cell protein extracts were prepared by extracting with radioimmunoprecipitation assay (RIPA) buffer containing a protease inhibitor cocktail (Sigma-Aldrich) and phosphatase inhibitors, NaF and sodium orthovanadate. Protein concentration was quantified using a bicinchoninic acid (BCA) assay (Pierce Biotechnology). Western blot analysis was performed using 15 to 30 μg of protein extracts that were run on SDS-PAGE and transferred onto nitrocellulose (Biorad) membranes. Blots were incubated with antibodies specific for: beta-actin (Sigma-Aldrich), TFAm, parkin, p16, phospho(S82)HSP27, HSP27 (Santa Cruz Biotechnologies), p53, 21, catalase, MDM2 (EMD Millipore), VDAC, phospho(S235/236)-ribosomal protein S6, ribosomal protein S6, phospho(S166)-MDM2, phospho(5473)-AKT, AKT, beta-tubulin (Cell Signaling), p62 (Enzo Biologicals), IL-6 (NeoBiolab), lamin B1, PINK1, and Mitoprofile Total OXPHOS Cocktail (complex I-NDUFB8 subunit, CII-SDHB subunit, […]2 subunit, and CIV-mitochondrial COX1 subunit) (Abcam) according to manufacturers' instructions. Western blots were visualized using IRDye 680 and 800 LI-COR secondary antibodies on a LI-COR Odyssey using LI-COR Odyssey software version 3.0 (LI-COR Biosciences). For co-immunoprecipitation, cell protein extracts were prepared in HNTG buffer containing a protease inhibitor cocktail and quantified using BCA assay. Protein extracts at the concentration of 0.5 mg were pre-cleared with protein A/G beads (Santa Cruz Biologicals) for 30 minutes. After centrifugation at 2,000 rpm for 5 minutes at 4° C., the supernatant was incubated with the primary antibody at manufacturer's recommended concentration overnight at 4° C. An IgG antibody (Cell Signaling) was used as a non-specific control.

## CO[C@H]1C[C@@H]2CC[C@@H](C)[C@@](O)(O2)C(=O)C(=O)N2CCCC[C@H]2C(=O)O[C@H]([C@H](C)C[C@@H]2CC[C@@H](O)[C@H](OC)C2)CC(=O)[C@H](C)/C=C(\C)[C@@H](O)[C@@H](OC)C(=O)[C@H](C)C[C@H](C)/C=C/C=C/C=C/1C [rapamycin]
  MDM2 phosphorylation in cells exposed to NRTIs: no increase
  ribosomal S6 phosphorylation in cells exposed to NRTIs: complete lack
